Marks after values point to notes of the source that are not given here.
Experiments:
[1] = tested on: biomarker (antibody) in serum from patients with suspected TB (tuberculosis); assay: ELISA of 64 serum samples on three synthetic antigens (Example 6); format: binding, human; conditions: dilution 1 in 80
Method: ELISA assays were carried out as known to those practiced in the art using 96 well plates. In the first procedure, the ELISA assay was carried out on 96-well microplates and the purified antigens were dissolved in n-hexane at a concentration of 62.5 μg/mL. The antigen solution was diluted and 50 μL was placed in each well. The plates were left to dry at room temperature overnight. Blocking was done with 0.5% casein/PBS (400 μL/well) and the plates were left to incubate at 25° C. for 1 h. The casein was aspirated using the LT-3500 plate washer and the plates flicked dry. Then the serum (1:20 dilution in 0.5% casein/PBS, pH 7.4) was added to the plate (50 μL/well) and left to incubate at 25° C. for 1 h. The serum was aspirated and washed three times with (casein/PBS, 400 μL/well) using the same plate washer and the plates were flicked dry again. After that, the secondary antibody, in the example given IgG Fc (1:1000 dilution in 0.5% casein/PBS) was added to the plate (50 μL/well) and the plates were left to incubate at 25° C. for 30 min. The plates were washed three times again with casein/PBS (400 μL/well) and dried. Then, the OPD substrate was added to the plates, which were left to incubate at 25° C. for 30 min. Finally, 2.5 M H2SO4 (50 μL/well) was added and the absorbances of each well were read at 492, 450 and 630 nm using an LT-4000 plate reader.
Human serum used in this work was from the WHO sample bank. In this case, all the patients had presented at a hospital with the symptoms of TB. Clinical diagnosis was made on the basis of a series of standard assays.
All measurements were taken as four replicates unless otherwise stated. These were averaged to provide the data in the tables which are for the value at 492 nm.
A set of 64 samples of serum from patients attending a clinic with suspected TB (tuberculosis) in a high burden TB population was examined using ELISA. Samples 1-9 had been diagnosed as positive for infection with tuberculosis (TB+) on the basis of a range of assays including sputum smear and culture, and samples 10-64 as negative for infection with tuberculosis (TB−). An ELISA assay was carried out with three synthetic antigens having the structures:
Cut-off values were set to identify all the positive samples with all three antigens, and the false positives were then identified in Table 3. […] 53 of the 55 negatives were correctly identified giving a specificity of 96%. The shaded results denote a result which is above the cut-off set for that particular antigen assay.

[2] = tested on: wild-type BMDCs; assay: IL-6 secretion by bone marrow-derived dendritic cells, cytokine-specific ELISA; format: cell-based, mice; conditions: antigens at 100 μg/ml coated on plate, ISO as solvent, FIG. 1
Method: The concentrations of cytokines in the cell-free medium from stimulation of bone marrow-derived dendritic cells were determined using standard cytokine-specific ELISA. BMDCs were generated from mice, by flushing out the femurs of mice into complete medium and pipetting vigorously to make a single-cell suspension. The glycolipids were coated to the bottom of 96 micro-well plates (100 μg/ml). BMDCs were added, and after 6 or 48 hours of incubation the supernatants were harvested.
The first experiment was the IL-6 secretion by wild-type BMDCs from mice using compounds B, D, C and H (shown below) as antigens at 100 μg/ml, and isopropyl alcohol (ISO) as a solvent. Commercial trehalose-6,6-dimycolate (TDM), lipopolysaccharides (LPS), and trehalose-6,6-dibehenate (TDB) were used as a controls.

CCCCCCCCCCCCCCCCCCCCCCCC[C@@H](C(=O)OC[C@H]1O[C@H](OC)[C@@H](O)[C@@H]1O)[C@H](O)CCCCCCCCCCCC1CC1CCCCCCCCCCCCCC[C@H]1C[C@H]1CCCCCCCCCCCCCCCCCCCC (some centres unmarked) [Antigen 3]
ELISA absorbance at 492 nm ([1]; sample 1 (TB+)): 0.74*
ELISA absorbance at 492 nm ([1]; sample 2 (TB+)): 0.76*
ELISA absorbance at 492 nm ([1]; sample 3 (TB+)): 0.99*
ELISA absorbance at 492 nm ([1]; sample 4 (TB+)): 0.97*
ELISA absorbance at 492 nm ([1]; sample 5 (TB+)): 0.99*
ELISA absorbance at 492 nm ([1]; sample 6 (TB+)): 1.39*
ELISA absorbance at 492 nm ([1]; sample 7 (TB+)): 1.97*
ELISA absorbance at 492 nm ([1]; sample 8 (TB+)): 1.67*
ELISA absorbance at 492 nm ([1]; sample 9 (TB+)): 1.09*
ELISA absorbance at 492 nm ([1]; sample 10 (TB−)): 0.59
ELISA absorbance at 492 nm ([1]; sample 11 (TB−)): 0.92*
ELISA absorbance at 492 nm ([1]; sample 12 (TB−)): 0.84*
ELISA absorbance at 492 nm ([1]; sample 13 (TB−)): 0.60
ELISA absorbance at 492 nm ([1]; sample 14 (TB−)): 1.30*
ELISA absorbance at 492 nm ([1]; sample 15 (TB−)): 0.64
ELISA absorbance at 492 nm ([1]; sample 16 (TB−)): 0.56
ELISA absorbance at 492 nm ([1]; sample 17 (TB−)): 0.81*
ELISA absorbance at 492 nm ([1]; sample 18 (TB−)): 0.68
ELISA absorbance at 492 nm ([1]; sample 19 (TB−)): 0.71*
ELISA absorbance at 492 nm ([1]; sample 20 (TB−)): 1.03*
ELISA absorbance at 492 nm ([1]; sample 21 (TB−)): 0.61
ELISA absorbance at 492 nm ([1]; sample 22 (TB−)): 0.66
ELISA absorbance at 492 nm ([1]; sample 23 (TB−)): 0.81*
ELISA absorbance at 492 nm ([1]; sample 24 (TB−)): 0.62
ELISA absorbance at 492 nm ([1]; sample 25 (TB−)): 0.21
ELISA absorbance at 492 nm ([1]; sample 26 (TB−)): 0.72*
ELISA absorbance at 492 nm ([1]; sample 27 (TB−)): 0.61
ELISA absorbance at 492 nm ([1]; sample 28 (TB−)): 0.38
ELISA absorbance at 492 nm ([1]; sample 29 (TB−)): 0.41
ELISA absorbance at 492 nm ([1]; sample 30 (TB−)): 0.39
ELISA absorbance at 492 nm ([1]; sample 31 (TB−)): 0.51
ELISA absorbance at 492 nm ([1]; sample 32 (TB−)): 0.91*
ELISA absorbance at 492 nm ([1]; sample 33 (TB−)): 0.42
ELISA absorbance at 492 nm ([1]; sample 34 (TB−)): 0.49
ELISA absorbance at 492 nm ([1]; sample 35 (TB−)): 0.38
ELISA absorbance at 492 nm ([1]; sample 36 (TB−)): 0.28
ELISA absorbance at 492 nm ([1]; sample 37 (TB−)): 0.55
ELISA absorbance at 492 nm ([1]; sample 38 (TB−)): 0.52
ELISA absorbance at 492 nm ([1]; sample 39 (TB−)): 0.35
ELISA absorbance at 492 nm ([1]; sample 40 (TB−)): 0.35
ELISA absorbance at 492 nm ([1]; sample 41 (TB−)): 0.66
ELISA absorbance at 492 nm ([1]; sample 42 (TB−)): 0.55
ELISA absorbance at 492 nm ([1]; sample 43 (TB−)): 0.30
ELISA absorbance at 492 nm ([1]; sample 44 (TB−)): 0.98*
ELISA absorbance at 492 nm ([1]; sample 45 (TB−)): 0.43
ELISA absorbance at 492 nm ([1]; sample 46 (TB−)): 0.31
ELISA absorbance at 492 nm ([1]; sample 47 (TB−)): 0.56
ELISA absorbance at 492 nm ([1]; sample 48 (TB−)): 0.32
ELISA absorbance at 492 nm ([1]; sample 49 (TB−)): 0.51
ELISA absorbance at 492 nm ([1]; sample 50 (TB−)): 0.37
ELISA absorbance at 492 nm ([1]; sample 51 (TB−)): 0.21
ELISA absorbance at 492 nm ([1]; sample 52 (TB−)): 0.36
ELISA absorbance at 492 nm ([1]; sample 53 (TB−)): 0.26
ELISA absorbance at 492 nm ([1]; sample 54 (TB−)): 0.27
ELISA absorbance at 492 nm ([1]; sample 55 (TB−)): 0.27
ELISA absorbance at 492 nm ([1]; sample 56 (TB−)): 0.73*
ELISA absorbance at 492 nm ([1]; sample 57 (TB−)): 0.37
ELISA absorbance at 492 nm ([1]; sample 58 (TB−)): 0.41
ELISA absorbance at 492 nm ([1]; sample 59 (TB−)): 0.45
ELISA absorbance at 492 nm ([1]; sample 60 (TB−)): 0.44
ELISA absorbance at 492 nm ([1]; sample 61 (TB−)): 0.41
ELISA absorbance at 492 nm ([1]; sample 62 (TB−)): 0.30
ELISA absorbance at 492 nm ([1]; sample 63 (TB−)): 0.25
ELISA absorbance at 492 nm ([1]; sample 64 (TB−)): 0.29

CCCCCCCCCCCCCCCCCCCCCCCCC(C(=O)OCC1OC(OCC2OC(OC)C(O)C2OC2OC(COC(=O)C(CCCCCCCCCCCCCCCCCCCCCCCC)C(O)CCCCCCCCCCCC3CC3CCCCCCCCCCCCCCC3CC3CCCCCCCCCCCCCCCCCCCC)C(O)C2O)C(O)C1O)C(O)CCCCCCCCCCCC1CC1CCCCCCCCCCCCCCC1CC1CCCCCCCCCCCCCCCCCCCC (centres unmarked) [H]
IL-6 secretion by wild-type BMDCs [2]: good level of stimulation
